Experimental data taken from patent US20110165173A1, “THERAPEUTIC AGENT AND DETECTION REAGENT FOR ARTERIOSCLEROTIC DISEASE WHICH TARGETS FOR SALUSIN” (PROTEINEXPRESS CO., LTD., priority 2007, published 2011).

Experiments:
ACAT-1 mRNA expression = ACAT-1 mRNA expression in human monocyte-derived macrophages (real time RT-PCR); assay type: cell-based; conditions: 0.6 nM during 7-day culture
Method: RNA extraction was performed using a TRIzol reagent (LIFE TECHNOLOGIES).
Cells were cultured for 7 days in a medium and then the medium was removed. The cells were washed 3 times with PBS. PBS was sufficiently removed therefrom and TRIzol (1 mL) was added thereto for cell lysis. The cell extraction solution was pippeted in and out 5 times and then transferred to a new Eppendorf tube. Then, the tube was left at room temperature for 5 minutes. Chloroform (200 μL) was added thereto, followed by strong shaking for 15 seconds. The tube was further left for 2 to 3 minutes and centrifuged at 12,000 rpm for 15 minutes (Himac CF15D2 high-speed micro refrigerated centrifuge; Hitach, Ltd.). The top layer was transferred to a new Eppendorf tube and isopropanol (500 μL) was added thereto, followed by end-over-end mixing. […] The concentration of the thus obtained RNA solution was obtained by absorbance determination at 260 nm. […]
Next, the RNA expression of ACAT-1 mRNA was analyzed by the real time RT-PCR method.
Primer sequences were determined Primer Express Version 1.0 (PE Biosystems) with the use of the respective human mRNA sequences shown below. […]
Real time PCR was performed to quantify the obtained cDNA by the GeneAmp 5700 Sequence Detection System (Applied Biosystems Japan) with the use of qPCR MasterMix SYBR Greenl (Eurogentec). […]

[1] = test system: ATP-binding cassette transporter A1 (ABCA-1) protein expression; experiment: ABCA-1 protein expression in human monocyte-derived macrophages (Western blotting); assay type: cell-based; conditions: 0, 0.2, 0.4, 0.6, 0.8, or 1.0 nM during 7-day culture
Method: Monocyte-derived macrophages that had been cultured for 7 days were washed with PBS 3 times, followed by solubilization with the addition of 10% SDS (sodium dodecyl sulfate) (100 μL) to each dish. Each cell extraction solution was scooped up with a cell scraper, followed by pulverization with the use of a 1-mL TERUMO syringe and a 23-G injection needle for fragmentation (shearing). The resultant was centrifuged at 15,000 rpm for 3 minutes (Himac CF15D2 high-speed micro refrigerated centrifuge; Hitach, Ltd.). The supernatant protein concentration was assayed by the bicinchoninic acid (BCA) method (Pierce) and used as a cell extraction solution for Western blotting.
For ABCA-1 protein detection, a reaction with an anti-human ABCA-1 antibody was carried out on a transfer membrane at room temperature for 1 hour. For a primary antibody (anti-human ABCA-1 rabbit polyclonal antibody (Funakoshi Corporation)), a stock solution (5 μL) was diluted 1,000-fold with PBS-0.1% Tween 20 (5 mL), and the diluent was used. The transfer membrane was washed with PBS-0.1% Tween 20. Then, a reaction with a secondary antibody (anti-rabbit IgG antibody: anti-rabbit IgG donkey antibody conjugated with horseradish peroxidase (HRP) (GE Healthcare Bio-Science)) was carried out at room temperature for 1 hour. […]

| Substance | ACAT-1 mRNA expression level, percent of that of the control (ACAT-1 mRNA expression) [%] | ABCA-1 protein expression [1] | ACAT-1 mRNA expression level relative to control (ACAT-1 mRNA expression) [times] |
| --- | --- | --- | --- |
| salusin-α: peptide (SEQ ID NO: 1) comprising 28 amino acid residues, generated by processing from preprosalusin (SGALPPAPAAPRPALRAQRAGPAGPGAK; listed as Homo sapiens) | 80 | no significant changes | – |
| salusin-β: peptide (SEQ ID NO: 3) comprising 20 amino acid residues, generated by processing from preprosalusin (AIFIFIRWLLKLGHHGRAPP; listed as Homo sapiens) [reference compound] | – | no significant changes | 1.6 |
